According to PubChem BioAssay (NCI):
Values joined by “and” are separate entries in the source; they are usually repeats but may differ in a detail not shown here. Identical values can stand only once.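 Step 1: Grow cells in 96-well plates. Step 2: Expose to compound for 48 hours at 5 concentrations. Step 3: Interpolate endpoints linearly; if unreached, use highest concentration. GI50 marks 50% less growth. TGI: total growth inhibition.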

Assays:
Assay in all cases: NCI-60 cell line screen, 48 h
[1] = tested on: EKVX NSCLC
[2] = tested on: SF-268 CNS
[3] = tested on: SF-295 CNS
[4] = tested on: SK-MEL-28 melanoma
[5] = tested on: SK-OV-3 ovarian
[6] = tested on: SW-620 colon
[7] = tested on: TK-10 renal
[8] = tested on: U251 CNS
[9] = tested on: NCI/ADR-RES ovarian
[10] = tested on: SF-539 CNS

Structure (SMILES)	TGI [1] [µM]	TGI [2] [µM]	TGI [3]	TGI [4] [µM]	TGI [5] [µM]	TGI [6] [µM]	TGI [7] [µM]	TGI [8] [µM]	TGI [9] [µM]	TGI [10] [µM]	GI50 [10]
OC12CCC3(O)c4ccccc4C3C1c1ccccc12 (stereo not drawn)	> 100	> 100	> 100 µM	> 100	> 100	> 100	> 100	> 100	–	–	–
COc1cc(S(=O)(=O)Nc2ccc(-c3csc(N4C(=O)C(Cl)C4c4cccs4)n3)cc2)ccc1Cl (stereo not drawn)	> 100	> 100	> 100 µM	> 100	> 100	> 100	–	–	> 100	> 100	–
C=CCN(CCN(CC=C)S(=O)(=O)c1ccc(C)cc1)S(=O)(=O)c1ccc(C)cc1	–	> 100	> 100 µM	> 100	–	> 100	> 100	> 100	> 100	–	–
CN1NC(c2ccccc2)=C(C#N)C(=O)CC1c1ccc(Br)cc1 (stereo not drawn)	–	> 100	91.2 µM	> 100	> 100	> 100	> 100	–	–	–	–
O=c1c2c3c(sc2nc2n1N=CN(c1ccc(F)cc1)C2)CCCC3	> 100	> 100	> 100 µM	> 100	> 100	> 100	> 100	> 100	> 100	–	–
C=CCn1c(-c2ccc(Cl)cc2)csc1=Nc1ccccc1OC	–	> 100	> 79.8 µM	> 100	> 100	> 100	> 100	> 100	> 91.6	> 100	–
O=C(O)c1ccc(Nc2nc3nn(Cc4ccccc4)cc3c(=O)s2)cc1	> 100	> 100	> 100 µM	> 100	> 100	> 100	> 100	> 100	–	> 100	–
Cc1ccc(SCC(OCn2cnc3c(Cl)nc(N)nc32)[C@H](C)F)cc1 (stereo partly drawn)	–	> 100	> 100 µM	> 100	> 100	> 100	> 100	> 100	> 100	> 100	–
COC(=O)[C@H](Cc1c[nH]c2ccccc12)NC(=O)c1ccccc1I	> 100	47	> 100 µM	> 100	> 100	> 100	77.3	> 100	> 100	–	–
NC(N)=N/N=C/c1c(-c2cc([N+](=O)[O-])c(Cl)cc2Cl)nc2n1CCS2	> 100	> 100	70.4 µM	22.2	–	> 100	45.9	> 100	> 100	> 100	–
Cc1cc2nnc(C(N)=O)c(N)c2cc1C	> 100	> 100	> 100 µM	–	> 100	> 100	> 100	> 100	> 100	> 100	–
O/N=C\C(=Nc1ccc(Cc2ccc(N=C(/C=N\O)NO)cc2)cc1)NO	> 100	> 100	> 100 µM	> 100	> 100	> 100	> 100	> 100	–	> 100	–
CCOC(=O)C1(C(=O)OCC)C=C(c2ccccc2)N(C2OC(COC(C)=O)C(OC(C)=O)C(OC(C)=O)C2OC(C)=O)C1=S (stereo not drawn)	> 100	> 100	> 100 µM	> 100	> 100	> 100	–	> 100	> 100	> 100	–
COc1ccc(CCN2C(=O)CC34C=CC(CC3C2=O)O4)cc1OC (stereo not drawn)	> 100	–	> 100 µM	> 100	> 100	> 100	> 100	> 100	> 100	> 100	–
C/C(O[Si](C(C)C)(C(C)C)C(C)C)=C(\C)C(=O)N(C)c1ccccc1Cl	> 100	> 100	> 100 µM	> 100	–	> 100	> 100	> 100	> 100	> 100	–
O=C(c1ccco1)N(C(=S)N1CCN(c2ccccn2)CC1)c1ccccc1	–	> 100	> 100 µM	> 100	> 100	> 100	> 100	> 100	–	> 100	–
Cc1ccc(S(=O)(=O)NC(=O)NC(CCC(N)=O)C(=O)O)cc1 (stereo not drawn)	–	> 100	> 100 µM	> 100	> 100	> 100	> 100	> 100	> 100	> 100	–
COc1ccc2c(c1OC)C(=O)O[C@@H]2[C@H]1c2c(cc3c(c2OC)OCO3)CCN1C	–	> 100	> 100 µM	> 100	> 100	> 100	–	> 100	> 100	> 100	–
CC(=O)NC1(C)C(C)C2CC1C(C)C2(C)C (stereo not drawn)	> 100	> 100	> 100 µM	> 100	> 100	> 100	> 100	> 100	–	> 100	–
Cc1cc(NS(=O)(=O)c2ccc(Nc3c4ccccc4nc4c(C(=O)NCCO)cccc34)cc2)no1	> 100	> 100	> 100 µM	> 100	> 100	83.8	> 100	> 100	> 100	–	–
COC(=O)CC(C(C(C)=O)C(=O)OCc1ccccc1)N1C(=O)OC(c2ccccc2)C1c1ccccc1 (stereo not drawn)	> 100	> 100	75.4 µM and > 100 µM	> 100	> 100	> 100	> 100	> 100	–	> 100	24.1 µM and > 100 µM
COc1ccc(/C(Cl)=C(\C=O)c2ccc(Cl)cc2)cc1OC	> 100	> 100	14.4 µM	–	> 100	15.4	31.1	14.7	–	–	–
